The text below walks through data of patent US20260083687A1, “COMPOUNDS FOR REDUCING LACTATION AND IMPROVING HEALTH” (AHV International B.V., priority 2022, published 2026).

The experiment has as its system cows (Holstein Friesians). The experiment in a line: Treatment with DPD analogs (organosulfur compounds) and milk yield (Example 8). The class given is in vivo, cow. Particulars: for Milk yield (kg) After 24 h / Milk yield (kg) After 48 h / Milk yield (kg) After 72 h / Milk yield (kg) After 96 h / Milk yield (kg) Last milking / Average reduction after 24 and 48 h (%) / average reduction after 24, 48 and 72 h (%) / % reduction after 24 h / % reduction after 48 h / % reduction after 72 h / % reduction after 96 h: individual cows; for Milk yield (kg) After 24 h / Milk yield (kg) After 48 h / Milk yield (kg) After 72 h / Milk yield (kg) After 96 h / Average reduction after 24 and 48 h (%) / average reduction after 24, 48 and 72 h (%) / % reduction after 24 h / % reduction after 48 h / % reduction after 72 h / % reduction after 96 h: dose per compound as listed in E284; for % reduction after 24 h average (milk yield): 24 h after one oral gel capsule; for % reduction after 24 h average (milk yield) / % reduction after 48 h average (milk yield) / % reduction after 72 h average (milk yield) / % reduction after 96 h average (milk yield) / average reduction after 24, 48 and 72 h (%) (milk yield) / Average reduction after 24 and 48 h (%) (milk yield): dose equimolar to 80 ml di-n-propyl disulfide; for % reduction after 24 h average (milk yield) / % reduction after 48 h average (milk yield) / % reduction after 72 h average (milk yield) / % reduction after 96 h average (milk yield): negative value = increase in yield; for % reduction after 48 h average (milk yield): 48 h after one oral gel capsule; for % reduction after 72 h average (milk yield): 72 h after one oral gel capsule; for % reduction after 96 h average (milk yield): 96 h after one oral gel capsule; for average reduction after 24, 48 and 72 h (%) (milk yield): average of 24, 48 and 72 h after one oral gel capsule; for Average reduction after 24 and 48 h (%) (milk yield): average of 24 and 48 h after one oral gel capsule; for Milk yield (kg) Last milking: before administration, single oral gel capsule dose per cow (ml unless g): diethyl disulfide 63, di-n-propyl disulfide 80, diisopropyl disulfide 160, di-n-butyl disulfide 100, dibenzyl disulfide 102, diethyl sulfide 55, di-n-propyl sulfide 72, diisopropyl sulfide 74, di-n-butyl sulfide 90, dibenzyl sulfide 96 g, diphenyl sulfide 85, di-n-propyl trisulfide 98, di-n-propyl sulfone 6; for % reduction after 24 h / % reduction after 48 h / % reduction after 72 h / % reduction after 96 h: vs milk yield before treatment. Here is the method:
Study design. 36 cows (Holstein Friesians) from 2 farms were used. The feed of the cows was composed of TMR, including corn and grass silage, supplemented with soya and minerals. […] The cows were milked in a milk robot. […] The cows were milked twice a day. The cows were housed in free stables. […] Placebo treatment corresponded to administration of two gel capsules containing 180 ml water.
For this study dosages synthetic compounds (>96% purity) as indicated in table 17 were administered to cows. The objective of this study was to compare the activity of a corresponding dose of the compounds expressed in mol, based on the number of moles that is present in 80 ml di-n-propyl disulfide at 20° C. The number of moles was converted to ml or grams of the tested compounds. For this purpose, the molecular weight and specific density were used in the calculations. The compounds were formulated in the gel capsules as indicated in the previous examples.
Before the various dosages were administered, the milk yields were monitored for at least 5 days.

“And” between values parts separate entries of the source, which are not always exact repeats. Equal entries are not always repeated.

Regarding `CCCS(=O)(=O)CCC` [Di-n-propyl sulfone, di-n-propyl sulfone], the “Milk yield (kg) After 24 h” value amounted to 13.7 kg, the “Milk yield (kg) After 48 h” value is given as 13.8 kg, the “Milk yield (kg) After 72 h” value came out at 15.2 kg and the “Milk yield (kg) After 96 h” value is given as 18.7 kg.
`[O-][S+](Cc1ccccc1)SCc1ccccc1` (centres unmarked) [Dibenzyl thiosulfinate, di-benzyl thiosulfinate]: the “% reduction after 24 h average (milk yield)” value (from here on “% reduction after 24 h average”) worked out at 38%, the “% reduction after 48 h average (milk yield)” value (“% reduction after 48 h average” for short) worked out at 37%, the “% reduction after 72 h average (milk yield)” value (“% reduction after 72 h average” for short) was 27.5% and the “% reduction after 96 h average (milk yield)” value (“% reduction after 96 h average” for short) is 5%. The “average reduction after 24, 48 and 72 h (%) (milk yield)” value is listed as 34.2%; the “Average reduction after 24 and 48 h (%) (milk yield)” value is recorded as 37.5%; the “Milk yield (kg) Last milking” value is 30.3 kg and 27.9 kg; the “Average reduction after 24 and 48 h (%)” value is 32.5% and 42.5%. Also, the “Milk yield (kg) After 24 h” value is 20.4 kg and 15.6 kg; the “Milk yield (kg) After 48 h” value was 20.7 kg and 15.9 kg; the “Milk yield (kg) After 72 h” value was 24.3 kg and 17.9 kg; the “Milk yield (kg) After 96 h” value is 28.1 kg and 27.3 kg. The “average reduction after 24, 48 and 72 h (%)” value is 28.5% and 39.7%; the “% reduction after 24 h” value was 33% and 43%; the “% reduction after 48 h” value is 32% and 42%; the “% reduction after 72 h” value was 20% and 35%. In addition, the “% reduction after 96 h” value was 7% and 3%.
Consider `O=S(=O)(Cc1ccccc1)SCc1ccccc1` [Dibenzyl thiosulfonate, di-benzyl thiosulfonate], for which the “% reduction after 24 h average” value is reported as 48%, the “% reduction after 48 h average” value is reported as 48%, the “% reduction after 72 h average” value was 28% and the “% reduction after 96 h average” value is on record as 15%. Also, the “average reduction after 24, 48 and 72 h (%) (milk yield)” value turned out to be 41.3%; the “Average reduction after 24 and 48 h (%) (milk yield)” value is reported as 48%; the “Milk yield (kg) Last milking” value was found to be 27.8 kg; the “Average reduction after 24 and 48 h (%)” value is given as 48%. Moreover, the “Milk yield (kg) After 24 h” value is recorded as 14.5 kg, the “Milk yield (kg) After 48 h” value is 14.6 kg, the “Milk yield (kg) After 72 h” value is reported as 19.9 kg and the “Milk yield (kg) After 96 h” value was determined as 23.5 kg. Further, the “average reduction after 24, 48 and 72 h (%)” value is 41.3%; the “% reduction after 24 h” value came out at 48%; the “% reduction after 48 h” value is given as 48%; the “% reduction after 72 h” value is on record as 28%. Also, the “% reduction after 96 h” value is 15%.
Turning to `CC(C)SSC(C)C` [Diisopropyl disulfide, di-isopropyl disulfide], the “Milk yield (kg) After 24 h” value is 13.6 kg, the “Milk yield (kg) After 48 h” value was 15.4 kg, the “Milk yield (kg) After 72 h” value stood at 18.5 kg and the “Milk yield (kg) After 96 h” value is given as 19.5 kg.
With “di-isopropyl thiosulfonate [Diisopropyl thiosulfonate]”, the “% reduction after 24 h average” value came to 28%, the “% reduction after 48 h average” value came to 26%, the “% reduction after 72 h average” value is 9% and the “% reduction after 96 h average” value was determined as 0%. Further, the “average reduction after 24, 48 and 72 h (%) (milk yield)” value is on record as 21%; the “Average reduction after 24 and 48 h (%) (milk yield)” value stood at 27%; the “Milk yield (kg) Last milking” value was determined as 28.9 kg; the “Average reduction after 24 and 48 h (%)” value turned out to be 27%. For the same molecule, the “Milk yield (kg) After 24 h” value was 20.8 kg, the “Milk yield (kg) After 48 h” value turned out to be 21.4 kg, the “Milk yield (kg) After 72 h” value turned out to be 26.3 kg and the “Milk yield (kg) After 96 h” value is reported as 28.8 kg. Also, the “average reduction after 24, 48 and 72 h (%)” value worked out at 21%; the “% reduction after 24 h” value was determined as 28%; the “% reduction after 48 h” value amounted to 26%; the “% reduction after 72 h” value is listed as 9%. Besides, the “% reduction after 96 h” value is listed as 0%.
